From patent publication US20240228542A1, “LYTIC DOMAIN FUSION CONSTRUCTS, CHECKPOINT INHIBITORS, AND METHODS OF MAKING AND USING SAME” (A28 Therapeutics Inc., priority 2020, published 2024)
Several values for one entry are separate records, joined by “and”; a condition that tells them apart may be missing. Identical values can stand only once. Entries after “also recorded” stand apart in the source; their conditions may differ. Like-named read-outs stand apart in the source and are kept apart here.

What was measured:
MDA-MB-435S xenograft = test: MDA-MB-435S xenograft, minimal effective dose, once weekly; type: in vivo, Nu/Nu mice
Method: To determine the minimal effective dose necessary to reduce MDA-MB-435S xenograft weights in a single dose regimen, Nu/Nu female mice, outbred strain, age 5 weeks (Charles River), were injected (s.c.) into the interscapular region with a MDA-MB-435S (passage #249)/Matrigel suspension (2.4×10^6 cells/mouse) [Leuschner 2006].
Each group consisted of 16 mice, which were injected once a week for 3 weeks. A group of 16 mice was sacrificed at the time of treatment start to serve as baseline. Saline injections served as control groups. During the entire study tumor volumes were recorded twice weekly.
Treatment started on day 16 after tumor cell injection when the tumors were established and continued on days 23 and 30. All remaining mice were necropsied 37 days after tumor cell injection.
Treatment response was determined by tumor weights and tumor weight change at necropsy compared to saline controls and untargeted CLIP71 treatment. Primary tumors were collected, weighed and prepared for histological evaluation in formalin fixation with 10% PBS buffered formalin. Statistical evaluation of data sets were conducted in GraphPad Prizm 4 and significance calculated by Wilcoxon signed-rank test.

MDA-MB-435S.luc cells = type: cell-based, human
Text: This example describes screening for cell toxicity (IC50) and hemolytic activity using a human breast cancer cell line.
The human melanoma cell line MDA-MB-435S.luc, which over expresses chorionic gonadotrophin (CG) and luteinizing hormone-releasing hormone (LHRH) receptors, was used to screen at passage numbers 248-252. The MDA-MB-435S.luc cell line was constructed from the MDA-MB-435S cell line obtained from the American Type Cell Culture Collection by stable transfection with the plasmid PRC/CMV-luc containing the Photinus pyralis luciferase gene and an […] resistance gene by lipofection. The stably transfected cell line was selected using G418 and the clones with the highest expression for the luciferase gene were tested for their LH and LHRH receptor expression.
MDA-MB-435S.luc cells were grown in Leibovitz's L 15 medium, 10% fetal bovine serum, 0.01 mg/ml bovine insulin, 100 IU/ml penicillin, 100 microg/ml streptomycin. The cells were cultured in tight closed flasks. The incubations were conducted using 96 well plates at 10,000 cells per well. Cells were typically seeded into 96 well plates and media was replaced after 48 hours of incubation. Each assay was conducted at increasing concentrations of 0, 0.001, 0.01, 0.05, 0.1, 0.5, 1, 2, 5, 10 and 100 micromolar doses of lytic peptide-binding domain conjugate. Each lytic peptide-binding domain conjugate provided in lyophilized form and was freshly dissolved in saline and added to cells. The duration of incubation was typically 24 h, and cell viability assays were conducted using formazan conversion assays (MTT assay). Controls contained saline or 0.1% triton as reference for 0 and 100% cell death, respectively.
Data were processed and analyzed using Graph Pad Prizm 4™ software (Graph Pad Prizm, Inc). Statistical analysis for significance was determined by a two-tailed Student's T-test. Each study was conducted to achieve an N of at least 8.

OVCAR-3 xenograft = test: OVCAR-3 ovarian cancer xenograft; type: in vivo, Nu/Nu mice; settings: for tumor volume: CLIP71 2 mg/kg, cisplatinum 10 mg/kg
Method: In brief, Nu/Nu female mice, inbred strain, age 5 weeks (Harlan-Sprague Dawley) were injected subcutaneously with a NIH:OVCAR-3 cells/Matrigel suspension (4.6×10^6 cells/mouse). Treatment was started on day 33 after tumor cell injection when the tumors were established and continued on days 41 and 47. The doses for the 3 weekly injections were 0.02, 0.2 and 2 mg/kg body weight, given as a single bolus intravenous injection via lateral tail vein administered once a week for three weeks on days 33, 41 and 47. Necropsies were conducted on day 52. Data are presented as mean […]SEM. Arrows show dosing.
A group of 9 tumor bearing mice was sacrificed on day 33 and served as baseline group. All mice were necropsied 51-52 days after tumor cell injection. Tumor volumes and bodyweights were recorded twice weekly during the study, as well as overall veterinarian examination of mice was conducted.
Primary tumors, liver, kidney, pancreas, heart, lung, and spleen were collected, fixed in formalin and prepared for histological evaluation. Tumor weights were measured at necropsy, part of the tumors were frozen at −80° C. for LH/CG and LHRH receptor assay determination.
As a biomarker for drug activity, CA 125 was determined in serum, collected from each individual mouse at necropsy using a Enzyme Linked Immunoassay for quantitative determination of ovarian cancer antigen CA125 (Assay kit Genway, Biotech, Inc. San Diego, CA, Catalog #40-052-115009, #BC-1013 according to the manufacturer).
LHRH receptor levels were assessed from formalin fixed tumors. Quantitative immunoperoxidase image analysis was conducted with the Ventana Image Analysis System (VIAS) adjunctive computer assisted image analysis system functionally connected to an interactive microscope (Axio Imager). The quantitative analysis was conducted with the program for quantification of Her2/neu receptor that included morphometric and colorimetric analysis. Receptor status results were reported as percentage of cells showing positive staining of the LHRH receptors under the following criteria: 0 non-immunoreactive, 1+: 1-25% positive, 2+: 26-50% positive, 3+: 51-75% positive cells.

OVCAR-3 cells = type: cell-based, human; settings: for incubation time to maximal efficacy: OVCAR-3 cells
Text: Membranes of non-cancerous cell lines are neutral and are resistant to cytolytic peptides, in contrast to cancer cell lines, which have a high phosphatidic acid content in their outer membrane.
(§1) The melanoma cell line studied was MDA-MB-435S (estrogen receptor alpha negative), breast cancer cell lines MCF-7 and T47D (estrogen receptor alpha positive), ovarian cancer cell lines (OVCAR-3 and SKOV-3), prostate cancer (LNCaP), the non-malignant breast epithelial cell line MCF-10A and the mouse fibroblast cell line NIH:3T3.
(§2) Cells were seeded into 96 well plates at a density of 10,000 cells/well. […] Controls contained USP saline or 0.1% TritonX-100™ as reference for 0 and 100% cell death, respectively. Incubations were terminated by removing the culture media after 2 minutes, 5 minutes, 15 minutes, 30 minutes, 1 hour, 2 hours, 6 hours, 24 and 48 hours. Cell viability was assessed through formazan conversion assay (MTT assay, (CellTiter 96 Aqueous One, Promega # G3582). Formazan conversion was determined using a BioRad Benchmark Plus microplate spectrophotometer dual wavelengths at 490/630 nm at room temperature).
(§3) Data were calculated as fraction of absorption in TritonX-100™ containing wells representing 100% cell death versus 0% cell death in saline containing wells. Cytotoxicity was determined as ICso using GraphPad Prism version 5.01 for Windows, GraphPad Software, San Diego California USA according to the program for sigmoidal dose response with variable slope using constraint values of 0 and 100%. 4 wells of each individual set of two 96 well plates were compared and analyzed. Statistical analysis for significance was determined by a two-tailed Student's T-test.

NIH:3T3 = type: cell-based, mouse; settings: noncancerous cell line 3T3
Method: as §1, §2
as §3, with “Statistical analysis for significance was determined by a two-tailed Student's T-test.” left out

[1] = MDA-MB-435S.luc, 1 × 3 wk, 22 d, minimal effective dose study
[2] = MDA-MB-435S.luc cells, 24 h, MTT, read-out: IC50

Sequence | Median Tumor Weight vs Baseline p < 0.05 (lowest dose) (MDA-MB-435S xenograft; [1]) | Median Tumor Weight vs Saline P < 0.05 (lowest dose) (MDA-MB-435S xenograft; [1]) | Remarks / histology of tumors (MDA-MB-435S xenograft; Phor18-LHRH at doses as low as 0.0002 mg/kg, CLIP71/LHRH 0.2/0.122 mg/kg) | Increased in vitro activity fold (MDA-MB-435S.luc cells; IC50 of 33 (Phor21-βCG-ala, 2.31 μM)/IC50 peptide, MDA-MB-435S.luc) | IC50 (MDA-MB-435S.luc cells; [2]) | IC50 (MDA-MB-435S.luc cells; MDA-MB-435S.luc cells, places that print μm (Table 2: lytic peptide row + hinge column + ligand section), read-out: IC50) | IC50 (MDA-MB-435S.luc cells; MDA-MB-435S.luc melanoma cell line, read-out: IC50 in Human Cancer Cell Lines) | lowest concentration with tumor volume reduction compared to baseline (OVCAR-3 xenograft; 42 days after tumor cell injection, p<0.001) | Median Tumor Weight vs Baseline p < 0.05 (doses) (OVCAR-3 xenograft; OVCAR-3, 1 × 3 wk, 20 d) | Remarks / histology of treated tumors (OVCAR-3 xenograft; OVCAR-3 xenograft) | tumor volume (OVCAR-3 xenograft; OVCAR-3 xenograft) | CA125 secretion (serum) (OVCAR-3 xenograft; greatest at 0.2 and 2 mg/kg (p<0.0002 vs saline)) | reduction of LHRH receptor levels (OVCAR-3 xenograft; treated tumors, immunoperoxidase image analysis) | IC50 (OVCAR-3 cells; OVCAR-3 (p47), read-out: IC50 with increasing incubation time) | incubation time to maximal efficacy (OVCAR-3 cells) | IC50 (NIH:3T3) | tumor volumes and tumor weights (MDA-MB-435S xenograft; CLIP71 plus LHRH 0.2/0.122 mg/kg) | tumor weights (OVCAR-3 xenograft; OVCAR-3 xenograft at necropsy)
KFAKFAKKFAKFAKKFAKQHWSYGLRPG [Phor18-LHRH] | 2 µg/kg | 0.2 µg/kg | significant necrosis | 2.65 fold | 870 ± 110 nM | 870 nM | 860 ± 160 nM | 0.2 mg/kg bodyweight | 200 µg/kg | significant necrosis | Tumor volumes decreased | reduced | 1-2 score points | 500 nM | 1 h and 0.5 to 1 h | > 10000 nM |  | 
KFAKFAKKFAKFAKKFAK [Phor18, reference compound] |  |  |  |  | 2060 ± 500 nM |  |  |  |  |  | tumor growth was observed; also recorded: no reduction in tumor volume |  |  |  | 24 h | > 40000 nM | did not decrease tumor weights | not effective in reducing tumor weights
